Results from patent US20260125374A1, “PI3K-ALPHA INHIBITORS AND METHODS OF MAKING AND USING THE SAME” (Relay Therapeutics, Inc., priority 2021, published 2026).

Experiment: Salt screening (XRPD, chiral purity of hits)
Format: physicochemical
Settings: for Chiral purity of salt screening solid: slurry
Method in brief: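 About 50 mg of I-1 Form A is stirred with 1.0 equivalent of counter ion in MeOH, acetone or IPAc at 50 °C for 2 h, then at 25 °C for at least 12 h. The screen covers 23 counter ions/coformers in about 70 experiments, using slurry, slow evaporation or anti-solvent addition. Solids are centrifuged off and analysed by XRPD.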

[1] = 1.0 equiv. naphthalene-1,5-disulfonic acid, MeOH
[2] = 1.0 equiv. naphthalene-1,5-disulfonic acid, MeOH/water(9:1, v/v)
[3] = 1.0 equiv. naphthalene-1,5-disulfonic acid, MeOH, dried at 50° C. for 21 h
[4] = crystalline hits of salt screening, listed as I-1 Form A

In the case of N#Cc1c(-c2cc(NC(=O)c3cc(F)cc(C(F)(F)F)c3)c3c(c2)C(=O)N[C@H]3c2cc(F)ccc2Cl)ccc2ncnn12 [Compound I-1, (R)-N-(3-(2-chloro-5-fluorophenyl)-6-(5-cyano-[1,2,4]triazolo[1,5-a]pyridin-6-yl)-1-oxoisoindolin-4-yl)-3-fluoro-5-(trifluoromethyl)benzamide], the “Salt screening result (slurry crystallization)” value (1.0 equiv. L-tartaric acid, Acetone) is reported as “thin suspension”, the “Salt screening result (anti-solvent)” value (1.0 equiv. L-tartaric acid, Acetone/MTBE) is reported as “−(I-1 Form B) (Free form, counter ions, or physical mixtures)” and the “Salt screening result (slurry crystallization)” value (1.0 equiv. L-tartaric acid, Isopropyl acetate) is reported as “− (I-1 Form A) (Free form, counter ions, or physical mixtures)”. The “Salt screening result (slurry crystallization)” value (1.0 equiv. L-tartaric acid, MeOH) was “− (I-1 Form A) (Free form, counter ions, or physical mixtures)”, the “Salt screening result (slurry crystallization)” value (1.0 equiv. citric acid, Acetone) was “thin suspension” and the “Salt screening result (anti-solvent)” value (1.0 equiv. citric acid, Acetone/MTBE) was “−(I-1 Form B) (Free form, counter ions, or physical mixtures)”. The “Salt screening result (slurry crystallization)” value (1.0 equiv. citric acid, Isopropyl acetate) was “− (I-1 Form A) (Free form, counter ions, or physical mixtures)”, the “Salt screening result (slurry crystallization)” value (1.0 equiv. citric acid, MeOH) was “− (I-1 Form A) (Free form, counter ions, or physical mixtures)” and the “Salt screening result (slurry crystallization)” value (1.0 equiv. fumaric acid, Acetone) was “− (physical mixtures (Free form, counter ions, or physical mixtures)”. For the same molecule, the “Salt screening result (slurry crystallization)” value (1.0 equiv. fumaric acid, Isopropyl acetate) was “− (physical mixtures (Free form, counter ions, or physical mixtures)”, the “Salt screening result (slurry crystallization)” value (1.0 equiv. fumaric acid, MeOH) was “− (I-1 Form A) (Free form, counter ions, or physical mixtures)” and the “Salt screening result (slurry crystallization)” value (1.0 equiv. gentisic acid, Acetone) was “thin suspension”. The “Salt screening result (anti-solvent)” value (1.0 equiv. gentisic acid, Acetone/MTBE) was “−(I-1 Form B) (Free form, counter ions, or physical mixtures)”, the “Salt screening result (slurry crystallization)” value (1.0 equiv. gentisic acid, Isopropyl acetate) was “− (I-1 Form A) (Free form, counter ions, or physical mixtures)” and the “Salt screening result (slurry crystallization)” value (1.0 equiv. gentisic acid, MeOH) was “− (I-1 Form A) (Free form, counter ions, or physical mixtures)”. The “Salt screening result (slurry crystallization)” value (1.0 equiv. isonicotinamide, Acetone) was “thin suspension”, the “Salt screening result (anti-solvent)” value (1.0 equiv. isonicotinamide, Acetone/MTBE) was “−(I-1 Form B) (Free form, counter ions, or physical mixtures)” and the “Salt screening result (slurry crystallization)” value (1.0 equiv. isonicotinamide, Isopropyl acetate) was “− (physical mixtures (Free form, counter ions, or physical mixtures)”. For the same molecule, the “Salt screening result (slurry crystallization)” value (1.0 equiv. isonicotinamide, MeOH) was “− (I-1 Form A) (Free form, counter ions, or physical mixtures)”, the “Salt screening result (slurry crystallization)” value (1.0 equiv. maleic acid, Acetone) was “thin suspension” and the “Salt screening result (anti-solvent)” value (1.0 equiv. maleic acid, Acetone/MTBE) was “−(I-1 Form B) (Free form, counter ions, or physical mixtures)”. The “Salt screening result (slurry crystallization)” value (1.0 equiv. maleic acid, Isopropyl acetate) was “− (I-1 Form A) (Free form, counter ions, or physical mixtures)”, the “Salt screening result (slurry crystallization)” value (1.0 equiv. maleic acid, MeOH) was “− (I-1 Form A) (Free form, counter ions, or physical mixtures)” and the “Salt screening result (slurry crystallization)” value (1.0 equiv. malonic acid, Acetone) was “thin suspension”. For the same molecule, the “Salt screening result (anti-solvent)” value (1.0 equiv. malonic acid, Acetone/MTBE) was “−(I-1 Form B) (Free form, counter ions, or physical mixtures)”, the “Salt screening result (slurry crystallization)” value (1.0 equiv. malonic acid, Isopropyl acetate) was “− (I-1 Form A) (Free form, counter ions, or physical mixtures)” and the “Salt screening result (slurry crystallization)” value (1.0 equiv. malonic acid, MeOH) was “− (I-1 Form A) (Free form, counter ions, or physical mixtures)”. The “Salt screening result (slurry crystallization)” value (1.0 equiv. methanesulfonic acid, Acetone) was “thin suspension”, the “Salt screening result (anti-solvent)” value (1.0 equiv. methanesulfonic acid, IPAc/MTBE) was “thin suspension” and the “Salt screening result (slurry crystallization)” value (1.0 equiv. methanesulfonic acid, Isopropyl acetate) was “thin suspension”. For the same molecule, the “Salt screening result (slurry crystallization)” value (1.0 equiv. naphthalene-1,5-disulfonic acid, Acetone) was “thin suspension”, the “Salt screening result (slurry crystallization)” value (1.0 equiv. naphthalene-1,5-disulfonic acid, Isopropyl acetate, 3 days) was 3 days: AF; and the “Salt screening result (slurry crystallization)” value (1.0 equiv. naphthalene-1,5-disulfonic acid, Isopropyl acetate, for another 3 days) was 3 days: AF. For the same molecule, the “Salt screening result (slurry crystallization)” value [1] was “+ (I-1 Form A ) (Salt hits)”, the “Salt screening result (slurry crystallization)” value [2] was “− (physical mixtures of (Free form, counter ions, or physical mixtures)” and the “Crystallinity of salt screening solid” value [3] was “low crystallinity”. The “Salt screening result (slurry crystallization)” value (1.0 equiv. naphthalene-2-sulfonic acid, Isopropyl acetate) was “thin suspension”, the “Salt screening result (slurry crystallization)” value (1.0 equiv. nicotinamide, Acetone) was “thin suspension” and the “Salt screening result (anti-solvent)” value (1.0 equiv. nicotinamide, Acetone/MTBE) was “−(I-1 Form B) (Free form, counter ions, or physical mixtures)”. The “Salt screening result (slurry crystallization)” value (1.0 equiv. nicotinamide, Isopropyl acetate) was “− (physical mixtures (Free form, counter ions, or physical mixtures)”, the “Salt screening result (slurry crystallization)” value (1.0 equiv. nicotinamide, MeOH) was “− (I-1 Form A (Free form, counter ions, or physical mixtures)” and the “Salt screening result (slurry crystallization)” value (1.0 equiv. nicotinic acid, Acetone) was “− (physical mixtures (Free form, counter ions, or physical mixtures)”. For the same molecule, the “Salt screening result (slurry crystallization)” value (1.0 equiv. nicotinic acid, Isopropyl acetate) was “− (physical mixtures (Free form, counter ions, or physical mixtures)”, the “Salt screening result (slurry crystallization)” value (1.0 equiv. nicotinic acid, MeOH) was “− (physical mixtures (Free form, counter ions, or physical mixtures)” and the “Salt screening result (slurry crystallization)” value (1.0 equiv. phosphoric acid, Acetone) was “thin suspension”. For the same molecule, the “Salt screening result (anti-solvent)” value (1.0 equiv. phosphoric acid, Acetone/MTBE) was “−(I-1 Form B) (Free form, counter ions, or physical mixtures)”, the “Salt screening result (slurry crystallization)” value (1.0 equiv. phosphoric acid, Isopropyl acetate) was “− (I-1 Form A) (Free form, counter ions, or physical mixtures)” and the “Salt screening result (slurry crystallization)” value (1.0 equiv. phosphoric acid, MeOH) was “− (I-1 Form A) (Free form, counter ions, or physical mixtures)”. For the same molecule, the “Salt screening result (slurry crystallization)” value (1.0 equiv. sodium hydroxide, Acetone) was “thin suspension”, the “Salt screening result (slurry crystallization)” value (1.0 equiv. sodium hydroxide, Isopropyl acetate, for another 3 days) was “another 3 days: AF” and the “Salt screening result (slurry crystallization)” value (1.0 equiv. sodium hydroxide, MeOH) was “clear solution”. For the same molecule, the “Salt screening result (slurry crystallization)” value (1.0 equiv. sulfuric acid, Acetone) was “thin suspension”, the “Salt screening result (anti-solvent)” value (1.0 equiv. sulfuric acid, Acetone/MTBE) was “thin suspension” and the “Salt screening result (slurry crystallization)” value (1.0 equiv. sulfuric acid, Isopropyl acetate) was “thin suspension”. The “Salt screening result (slurry crystallization)” value (1.0 equiv. sulfuric acid, MeOH) was “− (I-1 Form A) (Free form, counter ions, or physical mixtures)”, the “Salt screening result (slurry crystallization)” value (1.0 equiv. theobromine, Acetone) was “− (physical mixtures (Free form, counter ions, or physical mixtures)” and the “Salt screening result (slurry crystallization)” value (1.0 equiv. theobromine, Isopropyl acetate) was “− (physical mixtures (Free form, counter ions, or physical mixtures)”. The “Salt screening result (slurry crystallization)” value (1.0 equiv. theobromine, MeOH) was “− (physical mixtures (Free form, counter ions, or physical mixtures)”, the “Salt screening result (slurry crystallization)” value (1.0 equiv. theophylline, Acetone) was “− (physical mixtures (Free form, counter ions, or physical mixtures)” and the “Salt screening result (slurry crystallization)” value (1.0 equiv. theophylline, Isopropyl acetate) was “− (physical mixtures (Free form, counter ions, or physical mixtures)”. The “Salt screening result (slurry crystallization)” value (1.0 equiv. theophylline, MeOH) was “− (physical mixtures (Free form, counter ions, or physical mixtures)”, the “Salt screening result (slurry crystallization)” value (Free form, Acetone) was “− (I-1 Form A) (Free form, counter ions, or physical mixtures)” and the “Salt screening result (slurry crystallization)” value (Free form, Isopropyl acetate) was “− (I-1 Form A) (Free form, counter ions, or physical mixtures)”. The “Salt screening result (slurry crystallization)” value (Free form, MeOH) was “− (I-1 Form A) (Free form, counter ions, or physical mixtures)”, the “Chiral purity (by HPLC)” value [4] was 99.2% and the “Crystallinity (By XRPD)” value [4] was “High”. For the same molecule, the “Chiral purity of salt screening solid” value [1] was “Chiral purity: 100%”, the “Chiral purity of salt screening solid” value [2] was “Chiral purity: 99.3%” and the “Chiral purity of salt screening solid” value [3] was “Chiral purity: 100%”.
